In US8642510B2, “Inhibitors for brassinosteroid signalling” (GMI-Gregor Mendel-Institut fuer Molekulare Pflanzenbiologie …, priority 2008, dated 2014):
“Also recorded” adds a separate entry of the source.

Tests used:
[1] = test system: ASKs (A. thaliana GSK-3/Shaggy-like kinases); experiment: In vitro kinase assay, GST-ASK fusion proteins with MBP and γ-[32P]-ATP; format: biochemical, Arabidopsis thaliana; details: compounds at 10 μM, result in words
Procedure: GST-ASK fusion proteins were incubated with MBP as substrate and γ-[32P]-ATP as co-substrate in the absence (−) or presence of different derivatives (the numbers correspond to Table 1). […] The compounds were used at a concentration of 10 μM. The proteins were separated by SDS-PAGE and the incorporated radioactive phosphate detected with a storage phosphor imager screen.
(§1) ASKs were expressed as GST-fusion proteins in E. coli BL21. In vitro kinase assays were performed by incubating 50 ng GST-fusion protein, 10 μg myelin basic protein (MBP; Sigma, St Louis, Mo.) as substrate and 0.15 MBq γ-[32P]-ATP as co-substrate at 25° C. for 30 min. The reaction buffer consisted of 20 mM HEPES pH7.4, 15 mM MgCl2, 5 mM EGTA and 1 mM DTT. For initial experiments cold ATP was included at concentrations up to 3 μM. The reaction products were separated by SDS-PAGE and the amount of radioactivity incorporated into MBP quantified using an Amersham storage phosphor imager screen and a Biorad Molecular Imager FX. In vivo kinase activity was detected by phosphorylation band-shift assays using BZR1-CFP as substrate.
Representatives of all groups were expressed as recombinant GST fusion proteins in E. coli.

ASKθ = biological target: T1, ASKθ (Arabidopsis thaliana, UniProt Q96287); details: prior knowledge; cited from earlier work
T1 construct: made in house; host or cells: E. coli BL21
T1 sequence (Q96287 1-472): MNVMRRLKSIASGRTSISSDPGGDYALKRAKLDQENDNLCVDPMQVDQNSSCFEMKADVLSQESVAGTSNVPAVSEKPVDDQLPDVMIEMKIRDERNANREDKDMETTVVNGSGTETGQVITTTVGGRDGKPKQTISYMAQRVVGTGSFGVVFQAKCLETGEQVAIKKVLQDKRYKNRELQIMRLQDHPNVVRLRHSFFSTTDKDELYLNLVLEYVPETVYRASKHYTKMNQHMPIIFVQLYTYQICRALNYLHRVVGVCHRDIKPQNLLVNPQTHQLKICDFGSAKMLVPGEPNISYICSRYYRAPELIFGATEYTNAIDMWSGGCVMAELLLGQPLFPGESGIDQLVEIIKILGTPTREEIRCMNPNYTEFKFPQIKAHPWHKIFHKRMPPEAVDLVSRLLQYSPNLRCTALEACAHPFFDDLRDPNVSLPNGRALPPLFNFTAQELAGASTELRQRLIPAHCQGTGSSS

ASKβ = biological target: T2, ASKβ (Arabidopsis thaliana, UniProt O23145); details: prior knowledge; cited from earlier work
T2 construct: made in house; host or cells: E. coli BL21
T2 sequence (O23145 1-431): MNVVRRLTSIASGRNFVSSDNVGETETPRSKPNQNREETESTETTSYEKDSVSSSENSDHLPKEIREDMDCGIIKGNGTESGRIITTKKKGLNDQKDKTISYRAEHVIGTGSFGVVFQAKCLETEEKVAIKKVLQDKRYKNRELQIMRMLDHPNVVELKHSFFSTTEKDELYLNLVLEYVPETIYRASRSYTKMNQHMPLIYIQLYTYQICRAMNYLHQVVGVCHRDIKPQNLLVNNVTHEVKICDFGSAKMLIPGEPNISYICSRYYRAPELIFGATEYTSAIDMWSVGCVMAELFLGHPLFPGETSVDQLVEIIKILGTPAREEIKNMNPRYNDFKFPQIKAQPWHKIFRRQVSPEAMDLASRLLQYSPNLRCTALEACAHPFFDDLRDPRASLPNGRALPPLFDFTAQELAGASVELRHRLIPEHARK

ASKδ = biological target: T3, ASKδ (Arabidopsis thaliana, UniProt Q9FVS6); details: prior knowledge; listed as 4-[(5-bromo-2-pyridinyl)amino]-4-oxobutanoic acid; cited from earlier work
T3 construct: made in house; host or cells: E. coli BL21
T3 sequence (Q9FVS6 1-420): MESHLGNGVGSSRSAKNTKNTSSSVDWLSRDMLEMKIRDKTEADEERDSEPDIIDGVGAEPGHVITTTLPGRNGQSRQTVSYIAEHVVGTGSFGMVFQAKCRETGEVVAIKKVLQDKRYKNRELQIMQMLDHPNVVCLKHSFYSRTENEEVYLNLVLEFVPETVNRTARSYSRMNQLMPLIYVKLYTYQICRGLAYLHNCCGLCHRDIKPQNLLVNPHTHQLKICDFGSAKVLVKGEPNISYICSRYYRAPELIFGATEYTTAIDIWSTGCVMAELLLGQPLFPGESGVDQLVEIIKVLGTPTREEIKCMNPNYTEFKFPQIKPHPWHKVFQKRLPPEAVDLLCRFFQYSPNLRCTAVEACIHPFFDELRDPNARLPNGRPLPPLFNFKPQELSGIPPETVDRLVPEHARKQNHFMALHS

cpd mutant seedlings = details: background statement; cited from earlier work
bri1-1 mutant seedlings = details: background statement; cited from earlier work
[2] = test system: group I and group II ASKs; details: group I: ASKα, ASKγ, ASKε; group II: BIN2, ASKζ, ASKι; prior knowledge; listed as 4-[(5-bromo-2-pyridinyl)amino]-4-oxobutanoic acid; cited from earlier work
[3] = Determination of pKa values; details: for pKa: 50% (v/v) methanol
Procedure: Fifty to 100 mg compound were weighed and dissolved in 50 ml 50% (v/v) methanol. A titration curve with 50 mM NaOH as standard solution was recorded with a Greisinger electonics GPHR 1400A pH meter. The equivalence point was determined by the difference quotient method (ΔpH/ΔVNaOH) and the pKa read from the titration curve at 50% neutralisation.

BIN2 = biological target: T4, BIN2 (Arabidopsis thaliana, UniProt Q39011); experiment: In vitro kinase assay, GST-BIN2; format: biochemical; details: compounds at 10 μM; result in words
T4 construct: made in house; host or cells: E. coli BL21
T4 sequence (Q39011 1-380): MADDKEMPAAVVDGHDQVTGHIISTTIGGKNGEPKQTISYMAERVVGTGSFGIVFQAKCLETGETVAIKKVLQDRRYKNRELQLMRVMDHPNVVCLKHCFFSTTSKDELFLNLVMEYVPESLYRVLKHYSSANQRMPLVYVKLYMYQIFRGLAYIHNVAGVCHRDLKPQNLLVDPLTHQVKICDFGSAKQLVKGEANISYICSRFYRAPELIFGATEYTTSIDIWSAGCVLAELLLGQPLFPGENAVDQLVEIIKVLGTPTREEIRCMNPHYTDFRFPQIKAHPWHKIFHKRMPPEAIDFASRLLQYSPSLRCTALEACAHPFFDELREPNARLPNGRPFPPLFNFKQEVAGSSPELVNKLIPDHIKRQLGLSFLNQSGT
Procedure: GST-BIN2 was incubated with MBP and γ-[32P]-ATP in the absence or presence of compounds 3, 14 and 15 at a concentration of 10 μM. The proteins were separated by SDS-PAGE and phosphorylation of MBP was quantified with a phospho imager screen. The residual activity is expressed in % of the control. The means and standard deviations were calculated from 4 independent assays.
as §1
The second kinase of this class, ASKβ, and the group IV kinase ASKδ are not inhibited. Representatives of all groups were expressed as recombinant GST fusion proteins in E. coli. […]

ASKζ = biological target: T5, ASKζ (Arabidopsis thaliana, UniProt Q39010); experiment: In vivo kinase assay, BZR1-CFP phosphorylation band-shift in protoplasts; format: cell-based, A. thaliana; details: protoplasts co-transformed with BZR1-CFP and Myc-tagged ASK; increasing concentrations
T5 construct: expressed in transfected cells; host or cells: A. thaliana protoplasts
T5 sequence (Q39010 1-412): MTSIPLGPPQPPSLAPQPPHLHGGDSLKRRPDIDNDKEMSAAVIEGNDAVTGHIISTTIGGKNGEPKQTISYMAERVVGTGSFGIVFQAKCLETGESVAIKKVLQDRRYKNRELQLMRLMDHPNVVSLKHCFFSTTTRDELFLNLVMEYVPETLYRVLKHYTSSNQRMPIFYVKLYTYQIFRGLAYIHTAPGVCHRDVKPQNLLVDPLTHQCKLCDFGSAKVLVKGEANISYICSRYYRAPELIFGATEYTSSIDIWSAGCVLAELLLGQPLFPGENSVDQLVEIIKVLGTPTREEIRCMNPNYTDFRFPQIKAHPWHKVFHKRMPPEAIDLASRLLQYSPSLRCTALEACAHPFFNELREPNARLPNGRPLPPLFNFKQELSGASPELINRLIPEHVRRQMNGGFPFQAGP
Source text: A. thaliana protoplasts were co-transformed with expression constructs of BZR1-CFP and Myc-tagged ASKζ and treated with increasing concentrations of compounds 10 and 15. […] and ASKζ-Myc were detected by western blot analysis using polyclonal anti-GFP and monoclonal anti-Myc antibodies, respectively. A Coomassie R250 stain is shown as a loading control. Depending on the ASKζ kinase activity BZR1-CFP can be observed in a phosphorylated or unphosphorylated form (indicated by arrows). The ratio of the two ASKζ-Myc bands, indicating posttranslational modification of this protein, were not affected by inhibitor application.
ASKs were expressed as GST-fusion proteins in E. coli BL21. […] The reaction products were separated by SDS-PAGE and the amount of radioactivity incorporated into MBP quantified using an Amersham storage phosphor imager screen and a Biorad Molecular Imager FX. In vivo kinase activity was detected by phosphorylation band-shift assays using BZR1-CFP as substrate.
Because of this unexpected result, the effect of the inhibitions on the in vivo ASK activity was analysed by a direct method. […] Transformed protoplasts were incubated with different concentrations of compounds 10 and 15 and BZR1-CFP and […] and subsequently analysed by western blotting.

O=C(O)CCC(=O)Nc1ccc(Br)cn1 [Compound 14, 4-[(5-bromopyrid-2-yl)amino]-4-oxobutanoic acid]
Inhibition of ASKs in vitro (MBP phosphorylation) [1]: highly active
Inhibition of ASKθ (group III) (ASKθ): moderately inhibited
Inhibition of ASKβ (group III) (ASKβ): not inhibited
Inhibition of ASKδ (group IV) (ASKδ): not inhibited; also recorded: insensitive
Rescue of cpd mutant (cpd mutant seedlings): rescues both mutants
Rescue of bri1-1 mutant (bri1-1 mutant seedlings): rescues both mutants
Inhibition of group I and group II ASKs [2]: potent inhibitor; also recorded: most sensitive
pKa [3]: 5.6

O=C(O)CCC(=O)Nc1ccc(I)cn1 [Compound 15, 4-[(5-iodopyrid-2-yl)amino]-4-oxobutanoic acid]
Inhibition of ASKs in vitro (MBP phosphorylation) [1]: highest activity; also recorded: most potent compound in vitro
Inhibition of ASKs in vitro (MBP phosphorylation) ([1]; listed as iodo derivative): highly active
Inhibition of BIN2 in vitro (residual kinase activity) (BIN2): highest potency
Inhibition of in vivo ASK activity (BZR1-CFP phosphorylation shift) (ASKζ): potent inhibitors in vivo; also recorded: highly active; also recorded: high inhibitory activity in vivo
pKa [3]: 5.8
Portion undissociated ([3]; intracellular pH of 7.4): less than 3%
Portion undissociated / lipophilic, capable of diffusion through the membrane ([3]; pH5.8, the pH of the medium): 50%

CC(C)[C@@H](C)[C@@H](O)[C@H](O)[C@@H](C)[C@H]1CC[C@H]2[C@@H]3COC(=O)[C@H]4C[C@H](O)[C@H](O)C[C@]4(C)[C@H]3CC[C@]12C [epi-brassinolide]
Rescue of cpd mutant (cpd mutant seedlings): rescues cpd
Rescue of bri1-1 mutant (bri1-1 mutant seedlings): not bril-1
